Measurements as given in patent publication US10155021B2, “Antimicrobial 4-oxoquinolizines” (Emergent Product Development Gaithersburg Inc., priority 2011, dated 2018).
≈ marks a conversion by molar mass, not a printed value.

Columns and labels:
[1] = system: E. cloacae 13047; assay: MIC, standard panel of Gram-positive and Gram-negative bacteria (CLSI); assay type: cell-based, Enterobacter cloacae; settings: Enterobacter cloacae, 13047; CAMHB; read-out: MIC E. cloacae 13047
[2] = system: E. faecium 19434; assay: as above; assay type: cell-based, Enterococcus faecium; settings: Enterococcus faecium, 19434; CAMHB; read-out: MIC E. faecium 19434
[3] = system: S. aureus 101; assay: as above; assay type: cell-based, Staphylococcus aureus; settings: Staphylococcus aureus, 101; CAMHB; read-out: MIC S. aureus 101
[4] = system: E. coli ATCC 25922; assay: MIC, selected panel of Gram-positive and Gram-negative strains (Example 5); assay type: cell-based, Escherichia coli; settings: Escherichia coli, ATCC25922; read-out: MIC E. coli ATCC 25922
[5] = system: S. aureus ATCC 25923; assay: as above; assay type: cell-based; settings: Staphylococcus aureus, ATCC25923; read-out: MIC S. aureus ATCC 25923
[6] = system: GN10 Pseudomonas aeruginosa; assay: Chequerboard synergy with polymyxin B (FICI); assay type: cell-based; settings: combination with polymyxin B
From the text: (§1) A chequerboard technique was used to identify possible synergistic or antagonistic interactions between the 4-oxoquinolizines compounds, levofloxacin and polymyxin B. Levofloxacin was included as a control. […] Final dilutions were made in Mueller-Hinton broth, the specific test medium used for MIC determinations according to CLSI guidelines (CLSI. Methods for Dilution Antimicrobial Susceptibility Tests for Bacteria That Grow Aerobically; Approved Standard-Eighth Edition (2009). CLSI Document M07-A8. CLSI, Wayne, Pa. 19087-1898, USA.). The test medium used was a cation-adjusted Mueller-Hinton Broth II (Becton Dickinson UK Ltd., Oxford Science Park, Oxford, UK, OX4 4DQ).
(§2) The compounds 2, 33 and 35, as well as levofloxacin were tested in combination with polymyxin B on the following isolates: GN31 Acinetobacter baumannii—antibiotic susceptible clinical isolate, GN52 Acinetobacter baumannii—levofloxacin resistant clinical isolate, GN56 Acinetobacter baumannii—levofloxacin resistant clinical isolate, GN48 Klebsiella pneumoniae—NCTC 13443—NDM-1-metallo-R-lactamase and GN10 Pseudomonas aeruginosa—ATCC 27853—antibiotic susceptible reference isolate. All isolates are from the collection maintained at Quotient Bioresearch Ltd., Cambridge, UK.
(§3) The MIC values for the compounds and polymyxin B and levofloxacin were determined by broth microdilution following CLSI guidelines, and the MICs of agents in combination were determined as described by Pillai et.al (Pillai S K, Moellering R C Jr, Eliopoulis G M; Antimicrobial Combinations in Antibiotics in Laboratory Medicine 5th Edition (V. Lorian Ed) (2005) p 365-440). Initial MIC results were used to determine the microtiter plate patterns for the chequerboards. A suitable doubling dilution concentration range was selected such that the combination antibiotic range was at least two concentrations above and four concentrations below the MIC for each isolate. A fixed range of 0.008 to 8 mg/L was tested for polymyxin B except in the case of A. baumannii GN31 where a range of 0.004 to 4 mg/L was tested when in combination with the compounds 2, 33 and 35 as well as levofloxacin.
(§4) From the raw data, fractional inhibitory concentration indices (FICI) were determined for the compounds of the invention and levofloxacin together with polymyxin B for each isolate as follows: FICI=FICX+FICY Where,
(§5) FICX=concentration of the combination antibiotic in a particular row÷MIC of the combination drug alone
(§6) FICY=MIC of polymyxin B in combination÷MIC of the polymyxin B alone
(§7) Additionally isobolograms were created to represent the same data visually. Here, the MIC of polymyxin B was plotted against every concentration of the combination antibiotic up to the MIC.

[7] = system: GN31 Acinetobacter baumannii; assay: Pre-chequerboard MIC, broth microdilution (Example 6); assay type: cell-based; settings: antibiotic susceptible clinical isolate
From the text: as §1, §2, §3

[8] = system: GN48 Klebsiella pneumoniae; assay: as above; assay type: cell-based; settings: GN48 / NCTC 13443, NCTC 13443, NDM-1
From the text: as §1, §2, §3

[9] = system: GN56 Acinetobacter baumannii; assay: as above; assay type: cell-based; settings: levofloxacin resistant clinical isolate
From the text: as §1, §2, §3

[10] = system: GN10 Pseudomonas aeruginosa; assay: as above; assay type: cell-based; settings: ATCC 27853 / GN10, ATCC 27853, antibiotic susceptible
From the text: as §1, §2, §3

[11] = system: A. baumannii ATCC 19606; assay: MIC, selected panel of Gram-positive and Gram-negative strains (Example 5); assay type: cell-based, Acinetobacter baumannii; settings: Acinetobacter baumannii, ATCC19606; read-out: MIC A. baumannii ATCC 19606
[12] = system: B. pseudomallei; assay: microbe, parasite or virus in culture; assay type: cell-based; settings: Burkholderia pseudomallei, read-out: MIC B. pseudomallei
[13] = system: B. anthracis; assay: microbe, parasite or virus in culture; assay type: cell-based; settings: Bacillus anthracis, read-out: MIC B. anthracis
[14] = system: B. abortus; assay: microbe, parasite or virus in culture; assay type: cell-based; settings: Brucella abortus, read-out: MIC B. abortus
[15] = system: F. tularensis; assay: microbe, parasite or virus in culture; assay type: cell-based; settings: Francisella tularensis, read-out: MIC F. tularensis
[16] = system: E. faecalis 29212; assay: MIC, standard panel of Gram-positive and Gram-negative bacteria (CLSI); assay type: cell-based, Enterococcus faecalis; settings: Enterococcus faecalis, 29212; CAMHB; read-out: MIC E. faecalis 29212
[17] = system: GN48 Klebsiella pneumoniae; assay: Chequerboard synergy with polymyxin B (FICI); assay type: cell-based; settings: combination with polymyxin B
From the text: as §1, §2, §3, §4, §5, §6, §7

[18] = system: GN52 Acinetobacter baumannii; assay: Pre-chequerboard MIC, broth microdilution (Example 6); assay type: cell-based; settings: levofloxacin resistant clinical isolate
From the text: as §1, §2, §3

Cc1c(-c2ccc(N)cc2)c(F)cn2c(=O)c(C(=O)O)cc(C3CC3)c12 [Compound 7, 8-(4-amino-phenyl)-1-cyclopropyl-7-fluoro-9-methyl-4-oxo-quinolizine-3-carboxylic acid]
MIC [1]: 1 µg/mL (≈ 2.84 µM)
MIC [2]: 2 µg/mL (≈ 5.68 µM)
MIC [3]: 1 µg/mL (≈ 2.84 µM)

Cc1c(-c2ccc(CN)c(F)c2)ccn2c(=O)c(C(=O)O)cc(C3CC3)c12 [Compound 4, 8-(3-fluoro-4-aminomethyl-phenyl)-1-cyclopropyl-9-methyl-4-oxo-quinolizine-3-carboxylic acid]
MIC [4]: 0.016 µg/mL (≈ 0.0437 µM)
MIC [5]: 0.064 µg/mL (≈ 0.175 µM)
MIC [2]: 2 µg/mL (≈ 5.46 µM)
MIC [3]: 4 µg/mL (≈ 10.9 µM)

C[C@H]1COc2c(N3CCN(C)CC3)c(F)cc3c(=O)c(C(=O)O)cn1c23 [Levofloxacin, reference compound]
MIC [4]: 0.016 µg/mL (≈ 0.0443 µM)
Interaction with polymyxin B, P. aeruginosa GN10 [6]: No interaction
MIC [7]: 0.12 µg/mL
MIC [8]: 64 µg/mL
MIC [9]: 32 µg/mL
MIC [10]: 1 µg/mL
MIC [11]: 0.5 µg/mL (≈ 1.38 µM)

Cc1c(-c2ccc(N)c(F)c2)ccn2c(=O)c(C(=O)O)cc(C3CC3)c12 [Compound 1, 8-(3-fluoro-4-amino-phenyl)-1-cyclopropyl-9-methyl-4-oxo-quinolizine-3-carboxylic acid]
MIC [12]: 0.125 µg/mL (≈ 0.355 µM)
MIC [13]: < 0.008 µg/mL
MIC [14]: 0.125 µg/mL (≈ 0.355 µM)
MIC [15]: < 0.03 µg/mL

Cc1c(-c2cc(F)c(N)cc2F)ccn2c(=O)c(C(=O)O)cc(C3CC3)c12 [Compound 2, 8-(3,6-difluoro-4-amino-phenyl)-1-cyclopropyl-9-methyl-4-oxo-quinolizine-3-carboxylic acid]
MIC [16]: < 0.008 µg/mL
Synergy [17]: partial synergy
MIC [18]: 8 µg/mL
MIC [8]: 32 µg/mL
MIC [10]: 1 µg/mL
